Experimental data: US20240315247A1, “MICROBIOCIDAL QUINOLINE DIHYDRO-(THIAZINE)OXAZINE DERIVATIVES” (SYNGENTA CROP PROTECTION AG, priority 2020, published 2024)
Each block holds one compound with its values, some of them ahead of it.

Columns and labels:
[1] = system: Botryotinia fuckeliana (Botrytis cinerea); experiment: Botryotinia fuckeliana (Botrytis cinerea) / liquid culture (Gray mould); assay type: cell-based; settings: growth inhibition photometrically 3-4 days after application, compared to untreated control
Procedure: (§1) Botryotinia Fuckeliana (Botrytis cinerea)/Liquid Culture (Gray Mould) Conidia of the fungus from cryogenic storage are directly mixed into nutrient broth (Vogels broth). After placing a (DMSO) solution of test compound into a microtiter plate (96-well format), the nutrient broth containing the fungal spores is added. The test plates are incubated at 24° C. and the inhibition of growth is determined photometrically 3-4 days after application.

[2] = system: Monographella nivalis (Microdochium nivale); experiment: Monographella nivalis (Microdochium nivale) / liquid culture (Foot rot cereals); assay type: cell-based; settings: growth inhibition photometrically 4-5 days after application, compared to untreated control
Procedure: as §1, with “Monographella nivalis (Microdochium nivale)/Liquid” for “Botryotinia Fuckeliana (Botrytis cinerea)/Liquid”, “(Foot Rot Cereals)” for “(Gray Mould)”, “(PDB potato dextrose” for “(Vogels”, “4-5” for “3-4”

[3] = system: Glomerella lagenarium (Colletotrichum laqenarium); experiment: Glomerella lagenarium (Colletotrichum lagenarium) / liquid culture (Anthracnose); assay type: cell-based; settings: growth inhibition photometrically 3-4 days after application, compared to untreated control
Procedure: as §1, with “Glomerella lagenarium (Colletotrichum laqenarium)/liquid culture (Anthracnose)” for “Botryotinia Fuckeliana (Botrytis cinerea)/Liquid Culture (Gray Mould)”, “(PDB potato dextrose” for “(Vogels”, “measured” for “determined”

Compound: CC1(COc2ccc(C#N)cc2)CC(C)(C)OC(c2cnc3c(F)cccc3c2)=N1 (stereo not drawn) [E.01, 4-[[2-(8-fluoro-3-quinolyl)-4,6,6-trimethyl-5H-1,3-oxazin-4-yl]methoxy]benzonitrile]
inhibition of growth at 20 ppm [1]: ≥ 80%
inhibition of growth at 20 ppm [2]: ≥ 80%

Compound: CC1(COc2ccc(Br)cc2Br)CC(C)(C)OC(c2cnc3c(F)cccc3c2)=N1 (stereo not drawn) [E.02, 4-[(2,4-dibromophenoxy)methyl]-2-(8-fluoro-3-quinolyl)-4,6,6-trimethyl-5H-1,3-oxazine]
inhibition of growth at 20 ppm [1]: ≥ 80%
inhibition of growth at 20 ppm [2]: ≥ 80%

Compound: CC1(COc2ccc(Br)cc2)CC(C)(C)OC(c2cnc3c(F)cccc3c2)=N1 (stereo not drawn) [E.03, 4-[(4-bromophenoxy)methyl]-2-(8-fluoro-3-quinolyl)-4,6,6-trimethyl-5H-1,3-oxazine]
inhibition of growth at 20 ppm [1]: ≥ 80%
inhibition of growth at 20 ppm [3]: ≥ 80%
inhibition of growth at 20 ppm [2]: ≥ 80%

Compound: CC1(COc2ccc(F)cc2)CC(C)(C)OC(c2cnc3c(F)cccc3c2)=N1 (stereo not drawn) [E.04, 4-[(4-fluorophenoxy)methyl]-2-(8-fluoro-3-quinolyl)-4,6,6-trimethyl-5H-1,3-oxazine]
inhibition of growth at 20 ppm [1]: ≥ 80%
inhibition of growth at 20 ppm [3]: ≥ 80%
inhibition of growth at 20 ppm [2]: ≥ 80%

Compound: Cc1nc2c(F)c(F)ccc2cc1C1=NC(C)(COc2ccccc2)CC(C)(C)O1 (stereo not drawn) [E.05, 2-(7,8-difluoro-2-methyl-3-quinolyl)-4,6,6-trimethyl-4-(phenoxymethyl)-5H-1,3-oxazine]
inhibition of growth at 20 ppm [1]: ≥ 80%
inhibition of growth at 20 ppm [2]: ≥ 80%

melting point: 105 to 107 °C
Compound: CC1(COc2ccccc2)CC(C)(C)OC(c2cnc3c(F)c(F)ccc3c2)=N1 (stereo not drawn) [E.06, 2-(7,8-difluoro-3-quinolyl)-4,6,6-trimethyl-4-(phenoxymethyl)-5H-1,3-oxazine]
inhibition of growth at 20 ppm [1]: ≥ 80%
inhibition of growth at 20 ppm [2]: ≥ 80%

Compound: CC1(C)CC(COc2ccccc2)N=C(c2cnc3c(F)c(F)ccc3c2)O1 (stereo not drawn) [E.07, 2-(7,8-difluoro-3-quinolyl)-6,6-dimethyl-4-(phenoxymethyl)-4,5-dihydro-1,3-oxazine]
inhibition of growth at 20 ppm [1]: ≥ 80%
inhibition of growth at 20 ppm [2]: ≥ 80%

Compound: CC1(COc2ccccc2)CC(C)(C)OC(c2cnc3c(F)cccc3c2)=N1 (stereo not drawn) [E.08, 2-(8-fluoro-3-quinolyl)-4,6,6-trimethyl-4-(phenoxymethyl)-5H-1,3-oxazine]
inhibition of growth at 20 ppm [1]: ≥ 80%
inhibition of growth at 20 ppm [3]: ≥ 80%
inhibition of growth at 20 ppm [2]: ≥ 80%

melting point: 146 to 148 °C
Compound: CC1(C)CC(CC(F)(F)F)N=C(c2cnc3c(F)c(F)ccc3c2)O1 (stereo not drawn) [E.09, 2-(7,8-difluoro-3-quinolyl)-6,6-dimethyl-4-(2,2,2-trifluoroethyl)-4,5-dihydro-1,3-oxazine]
inhibition of growth at 20 ppm [2]: ≥ 80%

Compound: CC1(C)CC(CCC(F)(F)F)N=C(c2cnc3c(F)c(F)ccc3c2)O1 (stereo not drawn) [E.010, 2-(7,8-difluoro-3-quinolyl)-6,6-dimethyl-4-(3,3,3-trifluoropropyl)-4,5-dihydro-1,3-oxazine]
inhibition of growth at 20 ppm [1]: ≥ 80%
inhibition of growth at 20 ppm [2]: ≥ 80%

melting point: 112 to 113 °C
Compound: CC(C)(C)CC1CC(C)(C)OC(c2cnc3c(F)c(F)ccc3c2)=N1 (stereo not drawn) [E.011, 2-(7,8-difluoro-3-quinolyl)-4-(2,2-dimethylpropyl)-6,6-dimethyl-4,5-dihydro-1,3-oxazine]
inhibition of growth at 20 ppm [1]: ≥ 80%
inhibition of growth at 20 ppm [2]: ≥ 80%

Compound: CC(C)CC1CC(C)(C)OC(c2cnc3c(F)c(F)ccc3c2)=N1 (stereo not drawn) [E.012, 2-(7,8-difluoro-3-quinolyl)-4-isobutyl-6,6-dimethyl-4,5-dihydro-1,3-oxazine]
inhibition of growth at 20 ppm [1]: ≥ 80%
inhibition of growth at 20 ppm [3]: ≥ 80%
inhibition of growth at 20 ppm [2]: ≥ 80%

Compound: CC(C)CC1(C)CC(C)(C)OC(c2cnc3c(F)cccc3c2)=N1 (stereo not drawn) [E.013, 2-(8-fluoro-3-quinolyl)-4-isobutyl-4,6,6-trimethyl-5H-1,3-oxazine]
inhibition of growth at 20 ppm [1]: ≥ 80%
inhibition of growth at 20 ppm [3]: ≥ 80%
inhibition of growth at 20 ppm [2]: ≥ 80%

Compound: CC(C)CC1(C)CC(C)(C)OC(c2cnc3c(F)c(F)ccc3c2)=N1 (stereo not drawn) [E.014, 2-(7,8-difluoro-3-quinolyl)-4-isobutyl-4,6,6-trimethyl-5H-1,3-oxazine]
inhibition of growth at 20 ppm [1]: ≥ 80%
inhibition of growth at 20 ppm [3]: ≥ 80%
inhibition of growth at 20 ppm [2]: ≥ 80%

Compound: CC1(CC2CCCCC2)CC(C)(C)OC(c2cnc3c(F)c(F)ccc3c2)=N1 (stereo not drawn) [E.015, 4-(cyclohexylmethyl)-2-(7,8-difluoro-3-quinolyl)-4,6,6-trimethyl-5H-1,3-oxazine]
inhibition of growth at 20 ppm [1]: ≥ 80%
inhibition of growth at 20 ppm [3]: ≥ 80%
inhibition of growth at 20 ppm [2]: ≥ 80%

Compound: C=C(C)CC1(C)CC(C)(C)OC(c2cnc3c(F)c(F)ccc3c2)=N1 (stereo not drawn) [E.016, 2-(7,8-difluoro-3-quinolyl)-4,6,6-trimethyl-4-(2-methylallyl)-5H-1,3-oxazine]
inhibition of growth at 20 ppm [1]: ≥ 80%
inhibition of growth at 20 ppm [3]: ≥ 80%
inhibition of growth at 20 ppm [2]: ≥ 80%

Compound: CC(C)CC1(C)CC(C)(C(C)C)OC(c2cnc3c(F)cccc3c2)=N1 (stereo not drawn) [E.017, 2-(8-fluoro-3-quinolyl)-4-isobutyl-6-isopropyl-4,6-dimethyl-5H-1,3-oxazine]
inhibition of growth at 20 ppm [1]: ≥ 80%
inhibition of growth at 20 ppm [3]: ≥ 80%
inhibition of growth at 20 ppm [2]: ≥ 80%

Compound: CCC1(C)CC(C)(CC(C)C)N=C(c2cnc3c(F)cccc3c2)O1 (stereo not drawn) [E.018, 6-ethyl-2-(8-fluoro-3-quinolyl)-4-isobutyl-4,6-dimethyl-5H-1,3-oxazine]
inhibition of growth at 20 ppm [1]: ≥ 80%
inhibition of growth at 20 ppm [3]: ≥ 80%
inhibition of growth at 20 ppm [2]: ≥ 80%

Compound: C=C(C)CC1(C)CC(C)(C)OC(c2cnc3c(F)cccc3c2)=N1 (stereo not drawn) [E.019, 2-(8-fluoro-3-quinolyl)-4,6,6-trimethyl-4-(2-methylallyl)-5H-1,3-oxazine]
inhibition of growth at 20 ppm [1]: ≥ 80%
inhibition of growth at 20 ppm [3]: ≥ 80%
inhibition of growth at 20 ppm [2]: ≥ 80%

Compound: C=C(C)CC1(CC)CC(C)(C)OC(c2cnc3c(F)cccc3c2)=N1 (stereo not drawn) [E.020, 4-ethyl-2-(8-fluoro-3-quinolyl)-6,6-dimethyl-4-(2-methylallyl)-5H-1,3-oxazine]
inhibition of growth at 20 ppm [1]: ≥ 80%
inhibition of growth at 20 ppm [3]: ≥ 80%
inhibition of growth at 20 ppm [2]: ≥ 80%
